The record followed here is the supplement of paper PMC10307832.

What all share (test): relative viability (nuclei count vs DMSO), 5 days (fraction); higher = more cells survive
Compound in the experiment “AZD8055 + Lapatinib”: COc1ccc(-c2ccc3c(N4CCOC[C@@H]4C)nc(N4CCOC[C@@H]4C)nc3n2)cc1CO [AZD8055] + CS(=O)(=O)CCNCc1ccc(-c2ccc3ncnc(Nc4ccc(OCc5cccc(F)c5)c(Cl)c4)c3c2)o1 [Lapatinib] (partner 2 µM)
In a few lines: (§1)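 Relative viability is defined as nuclei in treated wells over nuclei in vehicle wells. Duplicate plates were run and medians reported. Lung cancer cell lines in 1536-well plates were dosed by pin tool one day after seeding, with one drug or with a fixed anchor-drug dose plus five library-drug doses (not always all listed) in √10 steps, and nuclei were counted after 5 days.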

Compound in the experiment “AZD8055 + Linsitinib”: COc1ccc(-c2ccc3c(N4CCOC[C@@H]4C)nc(N4CCOC[C@@H]4C)nc3n2)cc1CO [AZD8055] + C[C@]1(O)C[C@@H](c2nc(-c3ccc4ccc(-c5ccccc5)nc4c3)c3c(N)nccn32)C1 [Linsitinib] (partner 1 µM)
In a few lines: as §1

Compound in the experiment “AZD8055 + OSI-027”: COc1ccc(-c2ccc3c(N4CCOC[C@@H]4C)nc(N4CCOC[C@@H]4C)nc3n2)cc1CO [AZD8055] + COc1cccc2cc(-c3nc([C@H]4CC[C@H](C(=O)O)CC4)n4ncnc(N)c34)[nH]c12 [OSI-027] (partner 0.5 µM)
In a few lines: as §1

Compound in the experiment “AZD8055 + Trametinib”: COc1ccc(-c2ccc3c(N4CCOC[C@@H]4C)nc(N4CCOC[C@@H]4C)nc3n2)cc1CO [AZD8055] + CC(=O)Nc1cccc(-n2c(=O)n(C3CC3)c(=O)c3c(Nc4ccc(I)cc4F)n(C)c(=O)c(C)c32)c1 [Trametinib] (partner 0.02 µM)
In a few lines: as §1

NCI-H2405: the relative viability with AZD8055 + Lapatinib (first compound 0.01 µM) worked out at 1.03; with AZD8055 + Lapatinib (first compound 0.03162 µM), 0.955; with AZD8055 + Lapatinib (first compound 0.1 µM), 0.858; with AZD8055 + Lapatinib (first compound 0.3162 µM) it was 0.395; in the experiment with AZD8055 + Lapatinib (first compound 1 µM) it was 0.292; in the experiment with AZD8055 + Linsitinib (first compound 0.01 µM), 0.802. Also, the relative viability with AZD8055 + Linsitinib (first compound 0.03162 µM) came out at 0.621; with AZD8055 + Linsitinib (first compound 0.1 µM), 0.477; in the experiment with AZD8055 + Linsitinib (first compound 0.3162 µM) it was 0.333; with AZD8055 + Linsitinib (first compound 1 µM), 0.331; with AZD8055 + OSI-027 (first compound 0.01 µM), 0.664; with AZD8055 + OSI-027 (first compound 0.03162 µM), 0.697. Also, the relative viability in the experiment with AZD8055 + OSI-027 (first compound 0.1 µM) was determined as 0.56; with AZD8055 + OSI-027 (first compound 0.3162 µM), 0.43; with AZD8055 + OSI-027 (first compound 1 µM), 0.385; in the experiment with AZD8055 + Trametinib (first compound 0.01 µM), 0.555; in the experiment with AZD8055 + Trametinib (first compound 0.03162 µM) it was 0.494; in the experiment with AZD8055 + Trametinib (first compound 0.1 µM) it was 0.43. Further, the relative viability with AZD8055 + Trametinib (first compound 0.3162 µM) came out at 0.282; with AZD8055 + Trametinib (first compound 1 µM), 0.27.
Regarding NCI-H3122, the relative viability came to 1.09 with AZD8055 + Lapatinib (first compound 0.01 µM); 1.14 with AZD8055 + Lapatinib (first compound 0.03162 µM); 1.04 with AZD8055 + Lapatinib (first compound 0.1 µM); 0.79 in the experiment with AZD8055 + Lapatinib (first compound 0.3162 µM); 0.589 in the experiment with AZD8055 + Lapatinib (first compound 1 µM); 0.995 in the experiment with AZD8055 + Linsitinib (first compound 0.01 µM). Also, the relative viability in the experiment with AZD8055 + Linsitinib (first compound 0.03162 µM) stood at 0.823; in the experiment with AZD8055 + Linsitinib (first compound 0.1 µM) it was 0.547; in the experiment with AZD8055 + Linsitinib (first compound 0.3162 µM), 0.384; with AZD8055 + Linsitinib (first compound 1 µM) it was 0.299; in the experiment with AZD8055 + OSI-027 (first compound 0.01 µM), 1.09; in the experiment with AZD8055 + OSI-027 (first compound 0.03162 µM) it was 0.846. Also, the relative viability with AZD8055 + OSI-027 (first compound 0.1 µM) worked out at 0.854; with AZD8055 + OSI-027 (first compound 0.3162 µM), 0.323; with AZD8055 + OSI-027 (first compound 1 µM), 0.236; in the experiment with AZD8055 + Trametinib (first compound 0.01 µM), 0.227; with AZD8055 + Trametinib (first compound 0.03162 µM), 0.195; with AZD8055 + Trametinib (first compound 0.1 µM) it was 0.175. Also, the relative viability with AZD8055 + Trametinib (first compound 0.3162 µM) turned out to be 0.119; with AZD8055 + Trametinib (first compound 1 µM), 0.0905.
For PC-3 [JPC-3], the relative viability with AZD8055 + Lapatinib (first compound 0.01 µM) amounted to 0.392; with AZD8055 + Lapatinib (first compound 0.03162 µM) it was 0.393; with AZD8055 + Lapatinib (first compound 0.1 µM) it was 0.333; in the experiment with AZD8055 + Lapatinib (first compound 0.3162 µM) it was 0.322; with AZD8055 + Lapatinib (first compound 1 µM) it was 0.302; with AZD8055 + Linsitinib (first compound 0.01 µM), 0.992. The relative viability turned out to be 0.972 with AZD8055 + Linsitinib (first compound 0.03162 µM); 0.882 with AZD8055 + Linsitinib (first compound 0.1 µM); 0.673 with AZD8055 + Linsitinib (first compound 0.3162 µM); 0.461 in the experiment with AZD8055 + Linsitinib (first compound 1 µM); 0.84 with AZD8055 + OSI-027 (first compound 0.01 µM); 0.742 with AZD8055 + OSI-027 (first compound 0.03162 µM). Further, the relative viability with AZD8055 + OSI-027 (first compound 0.1 µM) is 0.756; with AZD8055 + OSI-027 (first compound 0.3162 µM), 0.768; in the experiment with AZD8055 + OSI-027 (first compound 1 µM) it was 0.566; with AZD8055 + Trametinib (first compound 0.01 µM), 0.749; with AZD8055 + Trametinib (first compound 0.03162 µM) it was 0.757; in the experiment with AZD8055 + Trametinib (first compound 0.1 µM), 0.565. The figures for the relative viability with AZD8055 + Trametinib (first compound 0.3162 µM) and with AZD8055 + Trametinib (first compound 1 µM) were 0.462 and 0.445, respectively.
Turning to PC-14, the relative viability amounted to 0.315 with AZD8055 + Lapatinib (first compound 0.01 µM); 0.204 with AZD8055 + Lapatinib (first compound 0.03162 µM); 0.244 with AZD8055 + Lapatinib (first compound 0.1 µM); 0.16 with AZD8055 + Lapatinib (first compound 0.3162 µM); 0.148 with AZD8055 + Lapatinib (first compound 1 µM); 1.03 with AZD8055 + Linsitinib (first compound 0.01 µM). The relative viability in the experiment with AZD8055 + Linsitinib (first compound 0.03162 µM) was 0.944; with AZD8055 + Linsitinib (first compound 0.1 µM), 0.669; with AZD8055 + Linsitinib (first compound 0.3162 µM), 0.526; in the experiment with AZD8055 + Linsitinib (first compound 1 µM) it was 0.211; with AZD8055 + OSI-027 (first compound 0.01 µM) it was 1.2; in the experiment with AZD8055 + OSI-027 (first compound 0.03162 µM) it was 0.849. Also, the relative viability was determined as 0.497 with AZD8055 + OSI-027 (first compound 0.1 µM); 0.283 with AZD8055 + OSI-027 (first compound 0.3162 µM); 0.109 in the experiment with AZD8055 + OSI-027 (first compound 1 µM); 0.743 with AZD8055 + Trametinib (first compound 0.01 µM); 0.715 with AZD8055 + Trametinib (first compound 0.03162 µM); 0.179 with AZD8055 + Trametinib (first compound 0.1 µM). Moreover, the relative viability with AZD8055 + Trametinib (first compound 0.3162 µM) was 0.108; in the experiment with AZD8055 + Trametinib (first compound 1 µM), 0.138.
